The source of these data is US20250340581A1, “PAEONIFLORIN MONOHYDRATE CRYSTAL FORM A, PREPARATION METHOD THEREFOR, AND USE THEREOF” (SHANGHAI INSTITUTE OF MATERIA MEDICA.CHINESE ACADEMY OF …, priority 2023, published 2025).

What all share (assay type): physicochemical
The nature of series [1]: Hygroscopicity test by dynamic moisture sorption (DVS). To be noted: for adsorbed moisture: 80% RH, 25° C., DVS. The protocol: DVS analysis: all dynamic moisture sorption analysis […] of this experiment were determined by DVS advantage model sorption instrument, British SMS company, relative humidity range: 0-95%, temperature: 25° C. Commercially available paeoniflorin (Aladdin Company, batch number K2011169, purity ≥98%) was used as the amorphous powder, and its X-ray powder diffraction comparison diagram with the crystal form A of the present invention is shown in FIG. 6, and the hygroscopicity analysis comparison diagram of paeoniflorin and the crystal form A of the present invention is shown in FIG. 7. […] The hygroscopicity of crystal form B was analyzed using DVS advantage adsorption instrument of SMS company in the UK, the amorphous form adsorbed 11.1% of water at 80% RH, showing hygroscopicity; Paeoniflorin crystal form B of the present invention adsorbed 2.22% of water at 80% RH, but its hygroscopicity was obviously different from that of crystal form A.

Series [2] can be described thus: Thermal stability by TG and DSC. The protocol:
DSC analysis: the method adopts a DSC 8500 model differential scanning calorimeter of PerkinElmer company, US. for detection, the atmosphere is nitrogen, and the heating speed is 10° C./min.
TG analysis: the method adopts a thermogravimetric analyzer Netzsch TG 209F3 model of German […] company, temperature range: 30-400° C., scan rate: 10° C./min, purge gas: 25 mL/min.

A short description of a further series: Solubility in water. On the procedure:
The crystal form A has good water solubility, the solubility in water is more than 20 mg/mL, and the crystal form A is easy to dissolve.

Series [3] can be described thus: Accelerated stability in a stability box (40° C./75% RH). To be noted: 15 days acceleration.

Structures are written as SMILES.

On to `CC12CC3(O)OC(O1)C1(COC(=O)c4ccccc4)C3CC21OC1OC(CO)C(O)C(O)C1O` (stereo not shown) [Paeoniflorin crystal form B], for which the adsorbed moisture in series [1] amounted to 2.22%.

`CC12CC3(O)OC(O1)C1(COC(=O)c4ccccc4)C3CC21OC1OC(CO)C(O)C(O)C1O` (stereo not shown) [amorphous form, reference compound] gave an adsorbed moisture in series [1] of 11.1%.

Regarding `CC12CC3(O)OC(O1)C1(COC(=O)c4ccccc4)C3CC21OC1OC(CO)C(O)C(O)C1O` (stereo not shown) [crystal form A], in series [2], the “phase transition and weight loss temperatures” value was “above 100 °C”. In addition, the solubility (usually the dissolved amount per volume that the medium holds) in the series “Solubility in water” was greater than 20 mg/mL. In addition, in series [1] (listed as paeoniflorin monohydrate crystal form A), the adsorbed moisture is 0.3%. Also, the “hygroscopicity (qualitative)” value in series [1] (no wet agglomeration, powder has good fluidity) was “small hygroscopicity”. In series [3], the “physical stability (conversion to amorphous or other forms)” value is on record as “did not convert to amorphous or other forms”.
